Test results: patent publication US20220279826A1, “OFF-FLAVOR SUPPRESSING AGENT” (AJINOMOTO CO., INC., priority 2019, published 2022)

Assays:
[1] = Sensory evaluation in chicken broth solution with potassium chloride (Experimental Example 3); settings: chicken broth solution with 0.8 wt % potassium chloride
Procedure: (§1) As shown in the following (1) to (3) below, 0.8 wt % of potassium chloride was added to a food base powder corresponding to 0.5 wt % of sodium chloride to prepare each base solution having an off-taste derived from potassium chloride.
Potassium chloride (0.8 g) was added to a commercially available powdered chicken broth mix (manufactured by Ajinomoto Co., Inc., trade name “Marutorigara Soup”) (1.0 g), hot water (98.2 g) was added to dissolve the mixture to prepare a base solution (chicken broth soup solution).
(§2) Each compound shown in the following Tables 15 to 17 was added to each base solution (ramen noodle soup solution, chicken broth solution, potage solution) so as to achieve the concentration (addition concentration) shown in the following Tables 15 to 17 to prepare each evaluation sample.
(§3) By a method similar to that in Experimental Example 1, a panel of two experts determined the intensity of off-tastes (bitter taste, metallic taste, harsh taste, astringent taste) derived from potassium chloride in each evaluation sample.

[2] = Sensory evaluation of off-taste suppressing effect in 0.8 wt % potassium chloride aqueous solution (Experimental Examples 1 and 2); settings: for off-taste suppressing effect: 0.8 wt % potassium chloride aqueous solution; for intensity of off-tastes (bitter taste, metallic taste, harsh taste, astringent taste) derived from potassium chloride: potassium chloride aqueous solutions, Tables 1 to 14
Procedure: Each compound shown in the following Tables 1 to 13 was added to a 0.8 wt % potassium chloride aqueous solution at the concentration (addition concentration) shown in the following Tables 1 to 13 to prepare each evaluation sample.
Based on the following evaluation criteria, a panel of two experts determined by consensus the intensity of off-tastes (bitter taste, metallic taste, harsh taste, astringent taste) derived from potassium chloride in each evaluation sample, by reference to each potassium chloride aqueous solution adjusted to 0.8 wt %, 0.75 wt %, 0.7 wt %, or 0.65 wt %.
−: intensity of the same level as potassium chloride aqueous solution with potassium chloride concentration of not less than 0.8 wt %
+: intensity of the same level as potassium chloride aqueous solution with potassium chloride concentration of not less than 0.75 wt % and less than 0.8 wt %
++: intensity of the same level as potassium chloride aqueous solution with potassium chloride concentration of not less than 0.7 wt % and less than 0.75 wt %
+++: intensity of the same level as potassium chloride aqueous solution with potassium chloride concentration of not less than 0.65 wt % and less than 0.7 wt %
Each compound shown in the following Table 14 was added to a 0.8 wt % potassium chloride aqueous solution at the concentration (addition concentration) shown in the following Table 14 to prepare each evaluation sample.

[3] = Sensory evaluation in potage solution with potassium chloride (Experimental Example 3); settings: Potage solution with 0.8 wt % potassium chloride
Procedure: as §1
Potassium chloride (0.8 g) was added to a commercially available powdered instant potage (manufactured by Ajinomoto Co., Inc., trade name “Knorr (registered trade mark) Cup Soup Potage”) (7.1 g), hot water (92.1 g) was added to dissolve the mixture to prepare a base solution (potage solution).
as §2, §3

[4] = Sensory evaluation in ramen noodle soup solution with potassium chloride (Experimental Example 3); settings: for off-taste suppressing effect: Ramen noodle soup solution with 0.8 wt % potassium chloride; for intensity of off-tastes (bitter taste, metallic taste, harsh taste, astringent taste) derived from potassium chloride: base solutions of Tables 15 to 17 (ramen noodle soup, chicken broth, potage)
Procedure: as §1
Potassium chloride (0.8 g) was added to a soup powder (1.1 g) of a commercially available instant ramen noodle (manufactured by SANYO FOODS Co., Ltd., trade name “Sapporo Ichiban Shouyuaji”), hot water (98.1 g) was added to dissolve the mixture to prepare a base solution (ramen noodle soup solution).
as §2, §3

[5] = addition concentration 10 ppb (1.25 weight ppm with respect to potassium chloride)
[6] = addition concentration 1 weight ppb (0.125 weight ppm with respect to potassium chloride)
[7] = addition concentration 5 weight ppb (0.625 weight ppm with respect to potassium chloride)
[8] = addition concentration 10 weight ppb (1.25 weight ppm with respect to potassium chloride)
[9] = addition concentration 50 weight ppb (6.25 weight ppm with respect to potassium chloride)
[10] = addition concentration 100 weight ppb (12.5 weight ppm with respect to potassium chloride)
[11] = addition concentration 500 weight ppb (62.5 weight ppm with respect to potassium chloride)
[12] = addition concentration 100 ppb (12.5 weight ppm with respect to potassium chloride)

CC1=C(O)C(=O)OC1C (stereo not drawn) [4,5-dimethyl-3-hydroxy-2(5H)-furanone]
off-taste suppressing effect [1, 5]: ++ (intensity of the same level as potassium chloride aqueous solution with potassium chloride concentration of not less than 0.7 wt % and less than 0.75 wt %)
off-taste suppressing effect [2, 6]: + (intensity of the same level as potassium chloride aqueous solution with potassium chloride concentration of not less than 0.75 wt % and less than 0.8 wt %)
off-taste suppressing effect [2, 7]: ++ (intensity of the same level as potassium chloride aqueous solution with potassium chloride concentration of not less than 0.7 wt % and less than 0.75 wt %)
off-taste suppressing effect [2, 8]: ++ (intensity of the same level as potassium chloride aqueous solution with potassium chloride concentration of not less than 0.7 wt % and less than 0.75 wt %)
off-taste suppressing effect [2, 9]: + (intensity of the same level as potassium chloride aqueous solution with potassium chloride concentration of not less than 0.75 wt % and less than 0.8 wt %)
off-taste suppressing effect [2, 10]: + (intensity of the same level as potassium chloride aqueous solution with potassium chloride concentration of not less than 0.75 wt % and less than 0.8 wt %)
off-taste suppressing effect [2, 11]: + (intensity of the same level as potassium chloride aqueous solution with potassium chloride concentration of not less than 0.75 wt % and less than 0.8 wt %)
off-taste suppressing effect ([2]; addition concentration 1000 weight ppb (125 weight ppm with respect to potassium chloride)): + (intensity of the same level as potassium chloride aqueous solution with potassium chloride concentration of not less than 0.75 wt % and less than 0.8 wt %)
intensity of off-tastes (bitter taste, metallic taste, harsh taste, astringent taste) derived from potassium chloride [2]: decreased
off-taste suppressing effect [3, 5]: ++ (intensity of the same level as potassium chloride aqueous solution with potassium chloride concentration of not less than 0.7 wt % and less than 0.75 wt %)
off-taste suppressing effect [4, 5]: ++ (intensity of the same level as potassium chloride aqueous solution with potassium chloride concentration of not less than 0.7 wt % and less than 0.75 wt %)
intensity of off-tastes (bitter taste, metallic taste, harsh taste, astringent taste) derived from potassium chloride [4]: decreased

CC1=C(O)C(=O)C(C)O1 (stereo not drawn) [4-hydroxy-2,5-dimethyl-3(2H)-furanone]
off-taste suppressing effect [1, 5]: ++ (intensity of the same level as potassium chloride aqueous solution with potassium chloride concentration of not less than 0.7 wt % and less than 0.75 wt %)
off-taste suppressing effect [2, 6]: + (intensity of the same level as potassium chloride aqueous solution with potassium chloride concentration of not less than 0.75 wt % and less than 0.8 wt %)
off-taste suppressing effect [2, 7]: + (intensity of the same level as potassium chloride aqueous solution with potassium chloride concentration of not less than 0.75 wt % and less than 0.8 wt %)
off-taste suppressing effect [2, 8]: ++ (intensity of the same level as potassium chloride aqueous solution with potassium chloride concentration of not less than 0.7 wt % and less than 0.75 wt %)
off-taste suppressing effect [2, 9]: ++ (intensity of the same level as potassium chloride aqueous solution with potassium chloride concentration of not less than 0.7 wt % and less than 0.75 wt %)
off-taste suppressing effect [2, 10]: ++ (intensity of the same level as potassium chloride aqueous solution with potassium chloride concentration of not less than 0.7 wt % and less than 0.75 wt %)
intensity of off-tastes (bitter taste, metallic taste, harsh taste, astringent taste) derived from potassium chloride [2]: decreased
off-taste suppressing effect [3, 5]: ++ (intensity of the same level as potassium chloride aqueous solution with potassium chloride concentration of not less than 0.7 wt % and less than 0.75 wt %)
off-taste suppressing effect [4, 5]: ++ (intensity of the same level as potassium chloride aqueous solution with potassium chloride concentration of not less than 0.7 wt % and less than 0.75 wt %)
intensity of off-tastes (bitter taste, metallic taste, harsh taste, astringent taste) derived from potassium chloride [4]: decreased

CC1=C(O)C(=O)CO1 [4-hydroxy-5-methyl-3(2H)-furanone]
off-taste suppressing effect [1, 12]: ++ (intensity of the same level as potassium chloride aqueous solution with potassium chloride concentration of not less than 0.7 wt % and less than 0.75 wt %)
off-taste suppressing effect [2, 6]: + (intensity of the same level as potassium chloride aqueous solution with potassium chloride concentration of not less than 0.75 wt % and less than 0.8 wt %)
off-taste suppressing effect [2, 7]: + (intensity of the same level as potassium chloride aqueous solution with potassium chloride concentration of not less than 0.75 wt % and less than 0.8 wt %)
off-taste suppressing effect [2, 8]: + (intensity of the same level as potassium chloride aqueous solution with potassium chloride concentration of not less than 0.75 wt % and less than 0.8 wt %)
off-taste suppressing effect [2, 9]: ++ (intensity of the same level as potassium chloride aqueous solution with potassium chloride concentration of not less than 0.7 wt % and less than 0.75 wt %)
off-taste suppressing effect [2, 10]: ++ (intensity of the same level as potassium chloride aqueous solution with potassium chloride concentration of not less than 0.7 wt % and less than 0.75 wt %)
off-taste suppressing effect [2, 11]: + (intensity of the same level as potassium chloride aqueous solution with potassium chloride concentration of not less than 0.75 wt % and less than 0.8 wt %)
intensity of off-tastes (bitter taste, metallic taste, harsh taste, astringent taste) derived from potassium chloride [2]: decreased
off-taste suppressing effect [3, 12]: ++ (intensity of the same level as potassium chloride aqueous solution with potassium chloride concentration of not less than 0.7 wt % and less than 0.75 wt %)
off-taste suppressing effect [4, 12]: ++ (intensity of the same level as potassium chloride aqueous solution with potassium chloride concentration of not less than 0.7 wt % and less than 0.75 wt %)
intensity of off-tastes (bitter taste, metallic taste, harsh taste, astringent taste) derived from potassium chloride [4]: decreased
